Measurements taken from ChEMBL document CHEMBL6182906, “Discovery, total synthesis, and biological evaluation of tyrcinnamins as antibacterial agents and tyrosinase activators” (Eur J Med Chem, 2025).
≈ marks a conversion by molar mass, not a printed value. Calls of active or inactive are those of the source. The calls are words filed in the database; no cut-off is given here.

Columns and labels:
Escherichia coli = assay: Antibacterial activity against Escherichia coli ATCC8739 assessed as bacterial growth inhibition up to 100 uM incubated for 16 hrs by broth microdilution assay; assay type: functional, organism-based
Pseudomonas aeruginosa = assay: Antibacterial activity against Pseudomonas aeruginosa ATCC27853 assessed as bacterial growth inhibition up to 100 uM incubated for 16 hrs by broth microdilution assay; assay type: functional, organism-based
Bacillus subtilis = assay: Antibacterial activity against Bacillus subtilis ATCC6633 assessed as bacterial growth inhibition incubated for 16 hrs by broth microdilution assay; assay type: functional
Staphylococcus aureus [1] = assay: Antibacterial activity against Staphylococcus aureus ATCC6538 assessed as bacterial growth inhibition incubated for 16 hrs by broth microdilution assay; assay type: functional
[2] = target: T1, Mushroom tyrosinase (Agaricus bisporus) (UniProt O42713+Q00024+C7FF04+C7FF05); assay: Inhibition of mushroom tyrosinase using L-DOPA as substrate up to 1 mM preincubated for 10 mins followed by substrate addition measured after 20 mins by absorbance based assay; assay type: protein assay; settings: time 30.0 min
L02 [3] = assay: Cytotoxicity against human LO2 cells at 100 uM incubated for 72 hrs by CCK8 assay; assay type: toxicity, cell-based; settings: l02, 72 h
HCT-116 = assay: Cytotoxicity against human HCT-116 cells at 100 uM incubated for 72 hrs by CCK8 assay; assay type: toxicity, cell-based; settings: hct-116, 72 h
HaCaT = assay: Cytotoxicity against human HaCaT cells at 100 uM incubated for 72 hrs by CCK8 assay; assay type: toxicity, cell-based
[4] = Hemolytic activity against chicken erythrocytes at 50 uM incubated for 1 hr by absorbance based assay; assay type: toxicity, cell-based, Gallus gallus, Erythrocyte; settings: read-out: Activity
[5] = target: T1, Mushroom tyrosinase (Agaricus bisporus); assay: Activation of mushroom tyrosinase using L-DOPA as substrate at 1 mM preincubated for 10 mins followed by substrate addition measured after 20 mins by absorbance based assay; assay type: protein assay; settings: filed as activator, time 30.0 min
Enterococcus faecalis = assay: Antibacterial activity against Enterococcus faecalis assessed as bacterial growth inhibition incubated for 16 hrs by broth microdilution assay; assay type: functional
[6] = Hemolytic activity against chicken erythrocytes up to 100 uM incubated for 1 hr by absorbance based assay; assay type: toxicity, cell-based, Gallus gallus, Erythrocyte; settings: read-out: Activity
[7] = tested on: Staphylococcus epidermidis; assay: Antibacterial activity against Staphylococcus epidermidis assessed as bacterial growth inhibition incubated for 16 hrs by broth microdilution assay; assay type: functional
Staphylococcus aureus [8] = assay: Antibacterial activity against methicillin-resistant Staphylococcus aureus assessed as bacterial growth inhibition incubated for 16 hrs by broth microdilution assay; assay type: functional
L02 [9] = assay: Induction of apoptosis in human LO2 cells assessed as necrotic cells at 100 uM incubated for 48 hrs by Annexin V-FITC/PI staining based flow cytometry (reference value: 1.12 %); assay type: functional
L02 [10] = assay: Induction of apoptosis in human LO2 cells assessed as early apoptotic cells at 50 uM incubated for 48 hrs by Annexin V-FITC/PI staining based flow cytometry (reference value: 0.85 %); assay type: functional
L02 [11] = assay: Induction of apoptosis in human LO2 cells assessed as late apoptotic cells at 100 uM incubated for 48 hrs by Annexin V-FITC/PI staining based flow cytometry (reference value: 0.044 %); assay type: functional
[12] = target: T1, Mushroom tyrosinase (Agaricus bisporus); assay: Competitive binding affinity to mushroom tyrosinase at 0.5 to 1 mM in presence of 0.25 mM L-DOPA; assay type: protein assay; settings: filed as activator, dose 0.5-1 mM
L02 [13] = assay: Induction of apoptosis in human LO2 cells assessed as viable cells at 100 uM incubated for 48 hrs by Annexin V-FITC/PI staining based flow cytometry (reference value: 98.0 %); assay type: functional; settings: read-out: Activity
L02 [14] = assay: Induction of apoptosis in human LO2 cells assessed as viable cells at 12.5 uM incubated for 48 hrs by Annexin V-FITC/PI staining based flow cytometry (reference value: 98.0 %); assay type: functional; settings: read-out: Activity
Staphylococcus aureus [15] = assay: Antibacterial activity against Staphylococcus aureus ATCC29213 assessed as bacterial growth inhibition incubated for 16 hrs by broth microdilution assay; assay type: functional
L02 [16] = assay: Induction of apoptosis in human LO2 cells assessed as necrotic cells at 12.5 uM incubated for 48 hrs by Annexin V-FITC/PI staining based flow cytometry (reference value: 1.12 %); assay type: functional
[17] = target: T1, Mushroom tyrosinase (Agaricus bisporus); assay: Competitive binding affinity to mushroom tyrosinase at 0.1 mM in presence of 0.25 mM L-DOPA; assay type: protein assay
L02 [18] = assay: Induction of apoptosis in human LO2 cells assessed as viable cells at 50 uM incubated for 48 hrs by Annexin V-FITC/PI staining based flow cytometry (reference value: 98.0 %); assay type: functional; settings: read-out: Activity
L02 [19] = assay: Induction of apoptosis in human LO2 cells assessed as early apoptotic cells at 12.5 uM incubated for 48 hrs by Annexin V-FITC/PI staining based flow cytometry (reference value: 0.85 %); assay type: functional
Enterococcus faecium = assay: Antibacterial activity against Enterococcus faecium assessed as bacterial growth inhibition incubated for 16 hrs by broth microdilution assay; assay type: functional
L02 [20] = assay: Induction of apoptosis in human LO2 cells assessed as early apoptotic cells at 100 uM incubated for 48 hrs by Annexin V-FITC/PI staining based flow cytometry (reference value: 0.85 %); assay type: functional
L02 [21] = assay: Induction of apoptosis in human LO2 cells assessed as late apoptotic cells at 50 uM incubated for 48 hrs by Annexin V-FITC/PI staining based flow cytometry (reference value: 0.044 %); assay type: functional
L02 [22] = assay: Induction of apoptosis in human LO2 cells assessed as necrotic cells at 50 uM incubated for 48 hrs by Annexin V-FITC/PI staining based flow cytometry (reference value: 1.12 %); assay type: functional
L02 [23] = assay: Induction of apoptosis in human LO2 cells assessed as late apoptotic cells at 12.5 uM incubated for 48 hrs by Annexin V-FITC/PI staining based flow cytometry (reference value: 0.044 %); assay type: functional
Staphylococcus aureus [24] = assay: Antibacterial activity against Staphylococcus aureus ATCC6538 assessed as bacterial growth inhibition at 100 uM incubated for 12 hrs by resazurin assay; assay type: functional, organism-based
Staphylococcus aureus [25] = assay: Antibacterial activity against Staphylococcus aureus ATCC6538 assessed as bacterial growth inhibition at 100 uM incubated for 12 hrs by spot assay; assay type: functional, organism-based

CCC/C=C\c1ccccc1/C=C/C(=O)N[C@@H](Cc1ccccc1)C(=O)OC
inhibition (Escherichia coli): inactive
inhibition (Pseudomonas aeruginosa): inactive
MIC (Bacillus subtilis): > 100 µM
MIC (Staphylococcus aureus [1]): > 100 µM

COC(=O)[C@H](Cc1ccc(O)cc1)NC(=O)/C=C/c1ccccc1F
inhibition (Escherichia coli): inactive
inhibition [2]: inactive
inhibition (Pseudomonas aeruginosa): inactive
MIC (Bacillus subtilis): 100 µM (≈ 34.3 µg/mL)
MIC (Staphylococcus aureus [1]): > 100 µM

CCC/C=C\c1ccccc1/C=C/C(=O)N[C@H](Cc1ccc(O)cc1)C(=O)OC
Activity (L02 [3]): Toxic
Activity (HCT-116): Toxic
inhibition (Escherichia coli): inactive
inhibition [2]: inactive
inhibition (Pseudomonas aeruginosa): inactive
MIC (Bacillus subtilis): 12.5 µM (≈ 4.92 µg/mL)
Activity (HaCaT): Toxic
hemolysis at 1 h, 50 µM [4]: > 5%
MIC (Staphylococcus aureus [1]): 12.5 µM (≈ 4.92 µg/mL)
Emax [5]: > 300%

COC(=O)[C@H](Cc1ccc(O)cc1)NC(=O)/C=C/c1ccccc1C
inhibition (Escherichia coli): inactive
inhibition [2]: inactive
inhibition (Pseudomonas aeruginosa): inactive
MIC (Bacillus subtilis): 100 µM (≈ 33.9 µg/mL)
MIC (Staphylococcus aureus [1]): > 100 µM
Emax [5]: > 300%

COC(=O)[C@H](Cc1ccc(O)cc1)NC(=O)/C=C/c1ccccc1C(F)(F)F
inhibition (Escherichia coli): inactive
inhibition [2]: inactive
inhibition (Pseudomonas aeruginosa): inactive
MIC (Bacillus subtilis): > 100 µM
MIC (Staphylococcus aureus [1]): 100 µM (≈ 39.3 µg/mL)

CCC/C=C\c1ccccc1/C=C/C(=O)N[C@@H](Cc1ccc(O)cc1)C(=O)OC
MIC (Enterococcus faecalis): 20 µM (≈ 7.87 µg/mL)
Activity (L02 [3]): Non-toxic
Activity (HCT-116): Non-toxic
hemolysis at 1 h, up to 100 µM [6]: < 5%
MIC [7]: > 40 µM
MIC (Staphylococcus aureus [8]): 20 µM (≈ 7.87 µg/mL)
inhibition (Escherichia coli): inactive
Activity (L02 [9]): 1.34%
inhibition [2]: inactive
Activity (L02 [10]): 0.74%
Activity (L02 [11]): 0.034%
Activity [12]: Active
inhibition (Pseudomonas aeruginosa): inactive
MIC (Bacillus subtilis): 12.5 µM (≈ 4.92 µg/mL)
viability at 100 µM (L02 [13]): 97.7%
viability at 12.5 µM (L02 [14]): 98.5%
Activity (HaCaT): Non-toxic
MIC (Staphylococcus aureus [1]): 12.5 µM (≈ 4.92 µg/mL)
MIC (Staphylococcus aureus [15]): 20 µM (≈ 7.87 µg/mL)
Activity (L02 [16]): 1.23%
Activity [17]: inactive
viability at 50 µM (L02 [18]): 97.9%
Activity (L02 [19]): 0.2%
MIC (Enterococcus faecium): 20 µM (≈ 7.87 µg/mL)
Emax [5]: > 300%
Activity (L02 [20]): 0.94%
Activity (L02 [21]): 0.024%
Activity (L02 [22]): 1.33%
Activity (L02 [23]): 0.041%

CCC/C=C\c1ccccc1/C=C/C(=O)N[C@H](Cc1ccc(O)cc1)C(=O)O
inhibition (Escherichia coli): inactive
inhibition [2]: inactive
inhibition (Pseudomonas aeruginosa): inactive
MIC (Bacillus subtilis): > 100 µM
inhibition (Staphylococcus aureus [24]): inactive
MIC (Staphylococcus aureus [1]): > 100 µM
inhibition (Staphylococcus aureus [25]): inactive

CCC/C=C\c1ccccc1/C=C/C(=O)N[C@@H](C)C(=O)OC
inhibition (Escherichia coli): inactive
inhibition (Pseudomonas aeruginosa): inactive
MIC (Bacillus subtilis): 100 µM (≈ 30.1 µg/mL)
MIC (Staphylococcus aureus [1]): > 100 µM

COC(=O)[C@H](Cc1ccc(O)cc1)NC(=O)/C=C/c1ccccc1Br
inhibition (Escherichia coli): inactive
inhibition [2]: inactive
inhibition (Pseudomonas aeruginosa): inactive
MIC (Bacillus subtilis): 100 µM (≈ 40.4 µg/mL)
MIC (Staphylococcus aureus [1]): 100 µM (≈ 40.4 µg/mL)

CC1(C)S[C@@H]2[C@H](NC(=O)Cc3ccccc3)C(=O)N2[C@H]1C(=O)O [PENICILLIN G]
MIC (Bacillus subtilis): 10 µM (≈ 3.34 µg/mL)
MIC (Staphylococcus aureus [1]): 0.05 µM (≈ 0.0167 µg/mL)

CCC/C=C\c1ccccc1/C=C/C(=O)N[C@@H](Cc1c[nH]c2ccccc12)C(=O)OC
inhibition (Escherichia coli): inactive
inhibition (Pseudomonas aeruginosa): inactive
MIC (Bacillus subtilis): > 100 µM
MIC (Staphylococcus aureus [1]): > 100 µM

COC(=O)[C@H](Cc1ccc(O)cc1)NC(=O)/C=C/c1ccccc1
inhibition (Escherichia coli): inactive
inhibition [2]: inactive
inhibition (Pseudomonas aeruginosa): inactive
MIC (Bacillus subtilis): > 100 µM
MIC (Staphylococcus aureus [1]): > 100 µM

COC(=O)[C@H](Cc1ccc(O)cc1)NC(=O)/C=C/c1ccccc1OC
inhibition (Escherichia coli): inactive
inhibition [2]: Active
inhibition (Pseudomonas aeruginosa): inactive
MIC (Bacillus subtilis): 100 µM (≈ 35.5 µg/mL)
MIC (Staphylococcus aureus [1]): 100 µM (≈ 35.5 µg/mL)

CCC/C=C\c1ccccc1/C=C/C(=O)O
inhibition (Escherichia coli): inactive
inhibition (Pseudomonas aeruginosa): inactive
MIC (Bacillus subtilis): > 100 µM
MIC (Staphylococcus aureus [1]): > 100 µM

CCC/C=C\c1ccccc1/C=C/C(=O)N[C@@H](Cc1ccc(O)cc1)C(=O)O
inhibition (Escherichia coli): inactive
inhibition [2]: inactive
inhibition (Pseudomonas aeruginosa): inactive
MIC (Bacillus subtilis): > 100 µM
inhibition (Staphylococcus aureus [24]): inactive
MIC (Staphylococcus aureus [1]): > 100 µM
inhibition (Staphylococcus aureus [25]): inactive

CN[C@H](CC(C)C)C(=O)N[C@H]1C(=O)N[C@@H](CC(N)=O)C(=O)N[C@H]2C(=O)N[C@H]3C(=O)N[C@H](C(=O)N[C@H](C(=O)O)c4cc(O)cc(O)c4-c4cc3ccc4O)[C@H](O)c3ccc(c(Cl)c3)Oc3cc2cc(c3O[C@@H]2O[C@H](CO)[C@@H](O)[C@H](O)[C@H]2O[C@H]2C[C@](C)(N)[C@H](O)[C@H](C)O2)Oc2ccc(cc2Cl)[C@H]1O [VANCOMYCIN]
MIC (Enterococcus faecalis): 2.8 µM (≈ 4.06 µg/mL)
MIC (Staphylococcus aureus [8]): 2.8 µM (≈ 4.06 µg/mL)
MIC (Staphylococcus aureus [15]): 1.4 µM (≈ 2.03 µg/mL)
MIC (Enterococcus faecium): 2.8 µM (≈ 4.06 µg/mL)
